Data as given in ChEMBL document CHEMBL4411333, “Optimization of Fused Bicyclic Allosteric SHP2 Inhibitors” (J Med Chem, 2019).
pIC50: −log10 of the molar value. Activity calls are given as the source filed them. The rule behind the calls is not given here.

Assays:
[1] = molecular target: T1, Tyrosine-protein phosphatase non-receptor type 11 (Homo sapiens, UniProt Q06124); experiment: Inhibition of SHP2 in human KYSE520 cells assessed as suppression of ERK phosphorylation after 2 hrs by AlphaScreen SureFire Phospho-ERK1/2 assay; type: cell-based
T1 sequence (Q06124 whole entry): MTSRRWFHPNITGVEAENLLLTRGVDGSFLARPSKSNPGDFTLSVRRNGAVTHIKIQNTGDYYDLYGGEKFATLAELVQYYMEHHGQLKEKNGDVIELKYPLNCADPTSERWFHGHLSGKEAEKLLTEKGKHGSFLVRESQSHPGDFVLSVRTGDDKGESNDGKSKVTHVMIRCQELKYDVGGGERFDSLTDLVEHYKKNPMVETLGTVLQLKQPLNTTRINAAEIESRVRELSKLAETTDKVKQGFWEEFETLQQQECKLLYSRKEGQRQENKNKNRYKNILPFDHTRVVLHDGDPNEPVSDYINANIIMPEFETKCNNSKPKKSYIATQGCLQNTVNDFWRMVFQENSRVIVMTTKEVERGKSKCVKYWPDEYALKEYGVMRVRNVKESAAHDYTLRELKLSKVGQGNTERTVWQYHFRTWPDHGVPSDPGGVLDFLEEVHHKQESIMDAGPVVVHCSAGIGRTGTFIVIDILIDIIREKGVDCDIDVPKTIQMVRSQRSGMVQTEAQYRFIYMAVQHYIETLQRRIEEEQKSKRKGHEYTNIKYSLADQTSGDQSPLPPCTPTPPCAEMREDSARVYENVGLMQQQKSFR

[2] = molecular target: Voltage-gated inwardly rectifying potassium channel KCNH2 (Homo sapiens, UniProt Q12809)
Sequence of Voltage-gated inwardly rectifying potassium channel KCNH2 (Q12809 whole entry): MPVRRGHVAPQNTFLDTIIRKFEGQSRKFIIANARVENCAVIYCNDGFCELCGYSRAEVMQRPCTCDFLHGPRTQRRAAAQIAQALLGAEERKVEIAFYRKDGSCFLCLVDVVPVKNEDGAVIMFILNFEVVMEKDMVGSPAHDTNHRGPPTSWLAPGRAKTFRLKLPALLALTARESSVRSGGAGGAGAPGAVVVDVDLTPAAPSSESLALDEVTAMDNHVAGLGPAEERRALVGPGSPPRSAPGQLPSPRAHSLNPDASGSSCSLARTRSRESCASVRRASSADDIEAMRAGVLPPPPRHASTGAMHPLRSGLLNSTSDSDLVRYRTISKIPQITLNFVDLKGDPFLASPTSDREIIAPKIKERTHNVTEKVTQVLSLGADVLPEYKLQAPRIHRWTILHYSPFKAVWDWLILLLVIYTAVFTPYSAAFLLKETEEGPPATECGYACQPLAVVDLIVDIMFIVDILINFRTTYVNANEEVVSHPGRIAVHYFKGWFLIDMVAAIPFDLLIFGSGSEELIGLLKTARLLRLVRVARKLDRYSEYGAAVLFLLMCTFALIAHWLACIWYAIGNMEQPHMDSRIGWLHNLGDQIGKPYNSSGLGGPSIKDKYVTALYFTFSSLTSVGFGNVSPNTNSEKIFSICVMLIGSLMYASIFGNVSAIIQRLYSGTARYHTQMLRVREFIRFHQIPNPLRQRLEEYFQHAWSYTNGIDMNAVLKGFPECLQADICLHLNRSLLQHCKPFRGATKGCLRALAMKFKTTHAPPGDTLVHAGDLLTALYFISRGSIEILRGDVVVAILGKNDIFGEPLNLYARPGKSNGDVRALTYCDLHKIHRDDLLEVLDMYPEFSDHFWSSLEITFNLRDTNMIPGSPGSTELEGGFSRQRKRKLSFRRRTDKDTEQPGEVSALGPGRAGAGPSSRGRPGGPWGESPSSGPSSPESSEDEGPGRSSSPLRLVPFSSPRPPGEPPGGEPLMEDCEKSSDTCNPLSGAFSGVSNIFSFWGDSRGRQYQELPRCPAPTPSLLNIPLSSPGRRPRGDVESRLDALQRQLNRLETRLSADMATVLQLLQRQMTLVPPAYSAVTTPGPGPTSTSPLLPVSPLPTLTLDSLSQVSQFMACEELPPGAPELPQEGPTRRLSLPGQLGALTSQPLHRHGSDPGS

[3] = system: KYSE-520 cell line; experiment: Antiproliferative activity against human KYSE520 cells after 5 days by Celltiter-Glo reagent-based assay; conditions: KYSE-520, 5 days
[4] = molecular target: T2, Tyrosine-protein phosphatase non-receptor type 11 (Homo sapiens) (UniProt Q06124); experiment: Inhibition of SHP2 (unknown origin) at 40 uM
T2 sequence (whole entry): T1 sequence (Q06124 whole entry)

[5] = molecular target: T2, Tyrosine-protein phosphatase non-receptor type 11 (Homo sapiens); experiment: Stabilization of SHP2 (unknown origin) assessed as thermal denaturation by measuring change in melting temperature at 100 uM by differential scanning fluorimetry
[6] = molecular target: T1, Tyrosine-protein phosphatase non-receptor type 11; experiment: Inhibition of human 6His-tagged SHP2 (2 to 593 residues) expressed in Escherichia coli BL21 Star (DE3) using DiFMUP as substrate preincubated for 30 mins followed by substrate addition by fluorescence assay
[7] = Clearance in rat liver microsomes; type: ADME, Microsome; conditions: read-out: CLH
[8] = Half life in rat liver microsomes; type: ADME, Microsome
[9] = Oral bioavailability in Sprague-Dawley rat at 5 mg/kg; type: ADME, organism-based; conditions: in vivo
[10] = Terminal half life in Sprague-Dawley rat at 1 mg/kg, iv or 5 mg/kg, po; type: ADME, organism-based; conditions: in vivo, read-out: beta t1/2 (converted)
[11] = Clearance in Sprague-Dawley rat at 1 mg/kg, iv or 5 mg/kg, po relative to hepatic extraction; type: ADME, organism-based; conditions: in vivo
[12] = Volume of distribution in Sprague-Dawley rat at 1 mg/kg, iv or 5 mg/kg, po; type: ADME, organism-based; conditions: in vivo
[13] = organism: Mus musculus; conditions: 100 mg/kg
[14] = organism: Mus musculus; conditions: 100 mg/kg; remark: listed apart in the source

SMILES	pIC50 [1]	pIC50 [2]	pIC50 [3]	also measured
C[C@@H]1OCC2(CCN(c3nc4[nH]nc(-c5ccncc5)c4c(=O)n3C)CC2)[C@@H]1N	6.89	< 4.52	5.90	–
Cc1ccc(-c2cc(C(=O)O)c3c(-c4ccc(Br)cc4)n[nH]c3n2)cc1	–	–	–	inhibition [4]: 30%; ΔTm [5]: 0.62 °C
C[C@@H]1OCC2(CCN(c3cnc4c(-c5cccc(Cl)c5Cl)n[nH]c4n3)CC2)[C@@H]1N	–	–	6.34	–
Cn1c(N2CCC3(CC2)COC[C@H]3N)nc2[nH]nc(-c3cccc(Cl)c3Cl)c2c1=O	6.91	–	5.76	–
C[C@@H]1OCC2(CCN(c3nc4[nH]nc(-c5ccnc(NC6CCC6)c5Cl)c4c(=O)n3C)CC2)[C@@H]1N	6.59	5.72	6.42	pIC50 [6]: 6.46
C[C@@H]1OCC2(CCN(c3nc4[nH]nc(-c5ccnc(NC6CC6)c5Cl)c4c(=O)n3C)CC2)[C@@H]1N	–	–	6.44	microsomal CLint [7]: 26.1 µL/min/mg; half-life [8]: 0.887 h; bioavailability [9]: 2%; half-life [10]: 2.7 h; CL [11]: 83%; Vd [12]: 3.9 L/kg
CNc1nccc(-c2n[nH]c3nc(N4CCC5(CC4)CO[C@@H](C)[C@H]5N)n(C)c(=O)c23)c1Cl	7.66	< 4.52	6.43	pIC50 [6]: 7.26
CN(C)Cc1ccc(-c2cc3onc(-c4ccccc4Cl)c3c(=O)n2C)cc1	–	–	–	inhibition [4]: 31%; ΔTm [5]: 0.67 °C
C[C@@H]1OCC2(CCN(c3nc4[nH]nc(-c5ccnc(N)c5Cl)c4c(=O)n3C)CC2)[C@@H]1N	6.99	< 4.52	5.92	pIC50 [6]: 7.49
Cn1c(N2CCC3(CCC[C@H]3N)CC2)nc2n[nH]c(-c3cccc(Cl)c3Cl)c2c1=O	7.52	6.60	6.33	pIC50 [6]: 7.51
C[C@@H]1OCC2(CCN(c3nc4[nH]nc(-c5cccc(Cl)c5Cl)c4c(=O)n3C)CC2)[C@@H]1N	–	–	6.78	inhibition [13]: Active; bioavailability [9]: 51%; inhibition [14]: Active; half-life [10]: 4.6 h; Vd [12]: 10.5 L/kg
C[C@@H]1OCC2(CCN(c3nc4[nH]nc(-c5ccnc(Cl)c5Cl)c4c(=O)n3C)CC2)[C@@H]1N	–	–	5.59	–
C[C@@H]1OCC2(CCN(c3cnc4c(-c5cccc(Cl)c5Cl)c[nH]c4n3)CC2)[C@@H]1N	6.32	8.15	–	–
Cc1nc(N)ccc1-c1n[nH]c2nc(N3CCC4(CC3)CO[C@@H](C)[C@H]4N)n(C)c(=O)c12	7.42	5.18	6.18	–
C[C@@H]1OCC2(CCN(c3nc4[nH]nc(Sc5ccnc(N)c5Cl)c4c(=O)n3C)CC2)[C@@H]1N	7.02	< 4.52	6.14	–
Cn1c(N2CCC(C)(CN)CC2)nc2[nH]nc(-c3cccc(Cl)c3Cl)c2c1=O	–	–	4.87	–
